Where two headings read alike, the source gives them in different places.
Tests used:
Assay type in all cases: cell-based
[1] = system: A549 (lung adenocarcinoma); test: Cell viability analysis (WST-1), lung cancer cell line A549; conditions: Homo sapiens
[2] = system: H1650 (lung adenocarcinoma); test: Cell viability analysis (WST-1), lung cancer cell line H1650; conditions: Homo sapiens
Method: (§1) The cell numbers were counted and reseed as 2×10^6 in cell culture plate/flask. Then, the culture medium was added to a volume of 10 ml, and the cells were cultured for 2-3 days. Then, the cells were suspended for loading into 96-well plates. The cell number was 3000/well and the volume of the culture medium was 100 μl each well.
(§2) Removing the original culture medium from 96-well plate. Then add 100 μl of commercially drug at a concentration of 10 μM per well. After 72 hours, add the diluted WST-1 reagent to the well with 100 μl/well, and the diluted WST-1 reagent was acquired from the dilution of 9:1 medium and WST-1 stock reagent. Finally, the total volume of each well was 200 μl/well. Culture the 96-well plate at 37° C. for 30 to 90 minutes. Detecting and calculate the survival rate of each cancer cells with an ELISA reader at OD450 nm.

[3] = system: C-33A (Cervical carcinoma); test: Cell viability analysis (WST-1), cervical cancer cell line C-33A; conditions: Homo sapiens, 72 h
Method: as §1, §2

[4] = system: 786-O (Renal adenocarcinoma); test: Cell viability analysis (WST-1), renal cancer cell line 786-O; conditions: Homo sapiens
Method: as §1, §2

[5] = system: AGS (Gastric Adenocarcinoma); test: Cell viability analysis (WST-1), gastric cancer cell line AGS
Method: as §1, §2

[6] = system: HepG2 (hepatocellular carcinoma); test: Cell viability analysis (WST-1), hepatic cancer cell line HepG2; conditions: Homo sapiens
Method: as §1, §2

[7] = system: Hep3B (hepatocellular carcinoma); test: Cell viability analysis (WST-1), hepatic cancer cell line Hep3B; conditions: Homo sapiens
[8] = system: HCT116-wt (colorectal carcinoma); test: Cell viability analysis (WST-1), colorectal cancer cell line HCT116-wt
Method: as §1, §2

[9] = system: LoVo (Colorectal Adenocarcinoma); test: Cell viability analysis (WST-1), colorectal cancer cell line LoVo; conditions: Homo sapiens
Method: as §1, §2

[10] = system: SAS (Tongue squamous cell carcinoma); test: Cell viability analysis (WST-1), tongue cancer cell line SAS
Method: as §1, §2

[11] = system: U2OS (osteosarcoma cell line); test: Cell viability analysis (WST-1), osteosarcoma cell line U2OS; conditions: Homo sapiens
Method: as §1, §2

[12] = system: A375 (amelanotic melanoma); test: Cell viability analysis (WST-1), skin cancer cell line A375; conditions: Homo sapiens
Method: as §1, §2

[13] = Cell viability analysis (WST-1), normal kidney cell line HEK293; conditions: human, HEK293 normal kidney cells
Method: as §1, §2

cervical cancer cell = test: Summary of the effect on cervical cancer cell (HeLa, C-33A); conditions: cervical cancer cell (mean of HeLa and C-33A averages), 72 hours, read-out: Inhibitory effect
Method: as §2

prostate cancer cell = test: Summary of the effect on prostate cancer cell (PC-3, LNCap); conditions: Homo sapiens, prostate cancer cell (mean of PC-3 and LNCap averages), 72 hours, read-out: Inhibitory effect
Method: as §2

gastric cancer cell = test: Summary of the effect on gastric cancer cell (AGS, MKN-45); conditions: Homo sapiens, gastric cancer cell (mean of AGS and MKN-45 averages), 72 hours, read-out: Inhibitory effect
Method: as §2

hepatic cancer cell = test: Summary of the effect on hepatic cancer cell (HepG2, Hep3B); conditions: hepatic cancer cell (mean of HepG2 and Hep3B averages), 72 hours, read-out: Inhibitory effect
Method: as §2

skin cancer cell = test: Summary of the effect on skin cancer cell (A375, BCC); conditions: Homo sapiens, A-375, skin cancer cell (mean of A375 and BCC averages), 72 hours, read-out: Inhibitory effect
Method: as §2

various cancer cells = test: Inhibition test on all kinds of cancer cells (overall statement); conditions: FIG. 1
Method: as §2

[14] = average of 4 tests, read-out: inhibition effect (survival rate of cells), average
[15] = 72 h, average of 4 tests, read-out: inhibition effect (survival rate of cells), average

Oc1ccc(OCc2ccccc2)cc1 [Monobenzone]
viability at 10 µM ([1]; A549, 72 h, A549, 10 μM, average of 4 tests, read-out: inhibition effect (survival rate of cells), Average): 93.4% | viability at 10 µM ([1]; A549, A549, 10 μM, 72 hours, test 0524-10 min, read-out: inhibition effect (survival rate of cells)): 80.8% | viability at 10 µM ([1]; A549, A549, 10 μM, 72 hours, test 0526-10 min, read-out: inhibition effect (survival rate of cells)): 111% | viability at 10 µM ([1]; A549, A549, 10 μM, 72 hours, test 0529-10 min, read-out: inhibition effect (survival rate of cells)): 80.8% | viability at 10 µM ([2]; NCI-H1650, 72 h, H1650, 10 μM, average of 4 tests, read-out: inhibition effect (survival rate of cells), Average): 86.3% | viability at 10 µM ([2]; NCI-H1650, H1650, 10 μM, 72 hours, test 1-10 min, read-out: inhibition effect (survival rate of cells)): 90.1% | viability at 10 µM ([2]; NCI-H1650, H1650, 10 μM, 72 hours, test 2-20 min, read-out: inhibition effect (survival rate of cells)): 66.6% | viability at 10 µM ([2]; NCI-H1650, H1650, 10 μM, 72 hours, test 3-20 min, read-out: inhibition effect (survival rate of cells)): 86.7% | viability at 10 µM ([2]; NCI-H1650, H1650, 10 μM, 72 hours, test 4-20 min, read-out: inhibition effect (survival rate of cells)): 102% | viability at 10 µM [3, 14]: 62.3% | viability at 10 µM ([3]; test 1, read-out: inhibition effect (survival rate of cells)): 57.9% | viability at 10 µM ([3]; test 2, read-out: inhibition effect (survival rate of cells)): 66.2% | viability at 10 µM ([3]; test 3, read-out: inhibition effect (survival rate of cells)): 61% | viability at 10 µM ([3]; test 4, read-out: inhibition effect (survival rate of cells)): 64.3% | viability at 10 µM ([4]; 786-0, 786-O, 72 hours, test 0524-10 min, read-out: inhibition effect (survival rate of cells)): 39.8% | viability at 10 µM ([4]; 786-0, 786-O, 72 hours, test 0526-10 min, read-out: inhibition effect (survival rate of cells)): 32.4% | viability at 10 µM ([4]; 786-0, 786-O, 72 hours, test 0529-10 min, read-out: inhibition effect (survival rate of cells)): 21.2% | viability at 10 µM ([4]; 786-0, 786-O, 72 hours, test 0531-10 min, read-out: inhibition effect (survival rate of cells)): 23.4% | viability at 10 µM ([4]; 786-0, 72 h, 786-O, average of 4 tests, read-out: inhibition effect (survival rate of cells), average): 29.2% | viability at 10 µM ([4]; 786-0, 72 h, Kidney cancer cell (786-O average), read-out: Inhibitory effect): 29.2% | viability at 10 µM [5, 15]: 68.4% | viability at 10 µM ([5]; 72 hours, test 0510-10 min, read-out: inhibition effect (survival rate of cells)): 85.2% | viability at 10 µM ([5]; 72 hours, test 0512-10 min, read-out: inhibition effect (survival rate of cells)): 51.3% | viability at 10 µM ([5]; 72 hours, test 0515-10 min, read-out: inhibition effect (survival rate of cells)): 62.2% | viability at 10 µM ([5]; 72 hours, test 0517-10 min, read-out: inhibition effect (survival rate of cells)): 74.9% | viability at 10 µM ([6]; HepG2, 72 h, HepG2, 10 μM, average of 4 tests, read-out: inhibition effect (survival rate of cells), average): 84.7% | viability at 10 µM ([6]; HepG2, HepG2, 10 μM, 72 hours, test 0524-20 min, read-out: inhibition effect (survival rate of cells)): 88.2% | viability at 10 µM ([6]; HepG2, HepG2, 10 μM, 72 hours, test 0526-20 min, read-out: inhibition effect (survival rate of cells)): 85.6% | viability at 10 µM ([6]; HepG2, HepG2, 10 μM, 72 hours, test 0529-20 min, read-out: inhibition effect (survival rate of cells)): 90.8% | viability at 10 µM ([6]; HepG2, HepG2, 10 μM, 72 hours, test 0531-20 min, read-out: inhibition effect (survival rate of cells)): 74.3% | viability at 10 µM [7, 15]: 106% | viability at 10 µM ([7]; 72 hours, test 0612-20 min, read-out: inhibition effect (survival rate of cells)): 111% | viability at 10 µM ([7]; 72 hours, test 0614-20 min, read-out: inhibition effect (survival rate of cells)): 116% | viability at 10 µM ([7]; 72 hours, test 0616-20 min, read-out: inhibition effect (survival rate of cells)): 96.8% | viability at 10 µM [8, 15]: 95% | viability at 10 µM ([8]; 72 hours, test 0602-30 min, read-out: inhibition effect (survival rate of cells)): 91.1% | viability at 10 µM ([8]; 72 hours, test 0605-10 min, read-out: inhibition effect (survival rate of cells)): 104% | viability at 10 µM ([8]; 72 hours, test 0607-10 min, read-out: inhibition effect (survival rate of cells)): 99.9% | viability at 10 µM ([8]; 72 hours, test 0609-10 min, read-out: inhibition effect (survival rate of cells)): 85.3% | viability at 10 µM [9, 15]: 83% | viability at 10 µM ([9]; 72 hours, test 0616-10 min, read-out: inhibition effect (survival rate of cells)): 82.3% | viability at 10 µM ([9]; 72 hours, test 0619-10 min, read-out: inhibition effect (survival rate of cells)): 73.9% | viability at 10 µM ([9]; 72 hours, test 0621-10 min, read-out: inhibition effect (survival rate of cells)): 94.7% | viability at 10 µM ([9]; 72 hours, test 0623-10 min, read-out: inhibition effect (survival rate of cells)): 81.3% | viability at 10 µM ([10]; 72 h, SAS, average of 4 tests, read-out: inhibition effect (survival rate of cells), average): 90.3% | viability at 10 µM ([10]; 72 h, tongue cancer cell (SAS average), read-out: Inhibitory effect): 90.3% | viability at 10 µM ([10]; SAS, 72 hours, test 6-26-10 min, read-out: inhibition effect (survival rate of cells)): 97.3% | viability at 10 µM ([10]; SAS, 72 hours, test 6-28-10 min, read-out: inhibition effect (survival rate of cells)): 59.4% | viability at 10 µM ([10]; SAS, 72 hours, test 6-30-10 min, read-out: inhibition effect (survival rate of cells)): 89.6% | viability at 10 µM ([10]; SAS, 72 hours, test 7-3-10 min, read-out: inhibition effect (survival rate of cells)): 115% | viability at 10 µM [11, 15]: 72.7% | viability at 10 µM ([11]; 72 h, osteosarcoma cell (U2OS average), read-out: Inhibitory effect): 72.7% | viability at 10 µM ([11]; 72 hours, test 6-26-10 min, read-out: inhibition effect (survival rate of cells)): 69.3% | viability at 10 µM ([11]; 72 hours, test 6-28-10 min, read-out: inhibition effect (survival rate of cells)): 66.7% | viability at 10 µM ([11]; 72 hours, test 6-30-10 min, read-out: inhibition effect (survival rate of cells)): 73% | viability at 10 µM ([11]; 72 hours, test 7-3-10 min, read-out: inhibition effect (survival rate of cells)): 81.7% | viability at 10 µM ([12]; A-375, 72 h, A375, 10 μM, average of 4 tests, read-out: inhibition effect (survival rate of cells), Average): 76.4% | viability at 10 µM ([12]; A-375, A375, 10 μM, 72 hours, test 0602-30 min, read-out: inhibition effect (survival rate of cells)): 56.7% | viability at 10 µM ([12]; A-375, A375, 10 μM, 72 hours, test 0605-10 min, read-out: inhibition effect (survival rate of cells)): 64.8% | viability at 10 µM ([12]; A-375, A375, 10 μM, 72 hours, test 0607-10 min, read-out: inhibition effect (survival rate of cells)): 77.3% | viability at 10 µM ([12]; A-375, A375, 10 μM, 72 hours, test 0609-10 min, read-out: inhibition effect (survival rate of cells)): 107% | viability at 72 h, 10 µM [13, 14]: 93% | viability at 72 h, 10 µM ([13]; test 0602-30 min, read-out: inhibition effect (survival rate of cells)): 82.7% | viability at 72 h, 10 µM ([13]; test 0605-30 min, read-out: inhibition effect (survival rate of cells)): 99.4% | viability at 72 h, 10 µM ([13]; test 0607-30 min, read-out: inhibition effect (survival rate of cells)): 97.9% | viability at 72 h, 10 µM ([13]; test 0609-30 min, read-out: inhibition effect (survival rate of cells)): 91.8% | viability at 10 µM (cervical cancer cell): 71.2% | viability at 10 µM (prostate cancer cell): 65.2% | viability at 10 µM (gastric cancer cell): 82.8% | viability at 10 µM (hepatic cancer cell): 95.4% | viability at 10 µM (skin cancer cell): 63.2% | inhibitory effect and specificity on various cancer cells (in words) (various cancer cells): significant inhibitory effect and specificity on various cancer cells

Source: patent publication US10098852B2 (LAUNX BIOMEDICAL CO., LTD., priority 2014, dated 2018)
